According to PMC9186373, “Design, synthesis, and biological evaluation of novel carbazole derivatives as potent DNMT1 inhibitors with reasonable PK properties” (Journal of Enzyme Inhibition and Medicinal Chemistry, 2022):
Like-named read-outs stand apart in the source and are kept apart here.

Assays:
[1] = test system: DNMT3B/3L; experiment: Methyltransferase enzymatic selectivity profiling, DNMT3B/3L; format: biochemical; conditions: 50 µM; for Relative selectivity index of DNMT1 vs DNMT 3B/3L: 1 - selected enzyme inhibition/DNMT1 inhibition
Experimental: (§1) In addition to DNMT1, there are many other methyltransferases that can bind with S-adenosyl-L-methionine (SAM) to facilitate transmethylation reactions[24]^,[25]. To investigate the selectivity of these potent compounds for DNMT1, we then evaluated the inhibitory activities against DNMT1 and other important methyltransferases at the concentration of 50 µM, including DNMT3A/3L, DNMT3B/3L, and other SAM-dependent enzymes[1]^,[2]^,[26], such as EZH2[27], LSD1[28], G9a (histone H3 lysine 9 methyltransferase)[29].
(§2) Here, the selectivity of non-nucleoside DNMT1 inhibitors is somewhat predictable because other methyltransferases mentioned above catalyse different substrates and share very low homology with DNMT1, even in their catalytic domain[30–32]. Subsequently, the screened compounds were evaluated in a dose-dependent assay against HCT116 (human colon cancer cell line) and A549 (human lung carcinoma cell line).
(§3) 493 Relative selectivity index
(§4) 494 Relative selectivity index of DNMT1 is calculated by formula: DNMT1-selectivity
(§5) 495 index =1 - selected enzyme inhibition/DNMT1 inhibition. The closer
(§6) 496 that this value is to 1 or even more than 1, the better DNMT1-selectivity the of the
(§7) 498 Table S1. Relative selectivity index of DNMT1
Cpd. […]

[2] = test system: HCT116 (human colon cancer cells); experiment: MTT assay, HCT116; format: cell-based
Experimental: (§8) The human lung cancer cells (A549) and human colon cancer cells (HCT116) were cultured in an RPMI-1640 medium containing 10% FBS, 100 U/mL streptomycin, and 100 U/mL penicillin at 37 °C in a humidified atmosphere with 5% CO2. All compounds were dissolved in DMSO and stock solutions were stored at −20 °C. Reagents were freshly diluted to the marked concentrations with a culture medium before use. DMSO concentration in experimental conditions never exceeded 0.1% (v/v). All cell lines were provided by the cell laboratory, School of pharmaceutical sciences, Guangzhou Medical University.
(§9) Cell viability was detected using an MTT assay kit. Cells were seeded into 96-well plates at a density of ∼1.0 × 10^4/well. 24 h later, sextuplicate wells were treated with media and new compounds at a fixed concentration (50 µM). After 24, 48, and 72 h, the drug-containing medium was replaced by a 100 µL fresh medium with 5 mg/mL MTT solution. After 4 h of incubation, the medium with MTT was removed, and 100 µL of DMSO was added to each well. The plates were gently agitated until the purple formazan crystals were dissolved, and the OD490 was determined using a […] (Olympus BX53, Japan). The data were calculated and plotted as the percent viability compared to the control.

[3] = test system: A549 (human lung cancer cells); experiment: MTT assay, A549; format: cell-based
Experimental: as §8, §9

[4] = test system: DNMT3A/3L; experiment: Methyltransferase enzymatic selectivity profiling, DNMT3A/3L; format: biochemical; conditions: 1 - selected enzyme inhibition/DNMT1 inhibition; 50 µM
Experimental: as §1, §2, §3, §4, §5, §6, §7
Cpd. […]

[5] = biological target: DNMT1 (Homo sapiens, UniProt P26358); experiment: H3-labelled radioactive methylation assay; format: biochemical; conditions: H3-labeled radioactive methylation assay; 40 nM DNMT1
Experimental: The DNMT1 radioactive methylation inhibition assays were performed in 30 µL reactions containing 0.1 µM adenosyl-L-methionine S-[methyl-^3H] (^3H-SAM, ^15 Ci/mmol, PerkinElmer), 0.25 µg/mL poly (dI-dC)·poly (dI-dC) (Sigma), 40 nM DNMT1 in 50 mM Tris-HCl, pH 8.0, 1 mM DTT, 5% glycerol, and 100 µg/mL BSA. The proteins were preincubated with a range of compound concentrations for 15 min at room temperature before adding the substrate and [^3H] SAM. After 60 min of incubation at 37 °C, the reaction systems were transferred to a MultiScreen HTS filter plate (Millipore), and the plate was washed 3 times with doubly distilled H2O via a vacuum. The radioactivity was determined by liquid scintillation counting (MicroBeta, PerkinElmer). IC50 values were derived by fitting the data for the inhibition percentage to a dose-response curve by non-linear regression in GraphPad Prism 5.0.
To quantitatively analyse DNMT1 inhibitory effect, the H^3-labelled radioactive methylation assay was conducted to measure the methyltransferase activity of DNMT1 at a range of concentrations for these compounds.

[6] = test system: EZH2; experiment: Methylation inhibition assay (AlphaLisa), EZH2; format: biochemical; conditions: 50 µM; for inhibitory activity against EZH2: Figure 3; for Relative selectivity index of DNMT1 vs EZH2: 1 - selected enzyme inhibition/DNMT1 inhibition
Experimental: (§10) All the compounds were first screened using an ELISA EpiQuik DNA methyltransferase (DNMT) activity/inhibitor assay kit (Epigentek). To measure the effects of the compounds on human DNMT1 activity, 200 nM purified DNMT1 was incubated with 50 µM and 100 µM of the different compounds and S-adenosylmethionine in the DNMT assay buffer in the assay plate at 37 °C for 2 h[36]. Next, every sample was incubated with the capture and detection antibody, followed by incubation with developer solution for 10 min at room temperature. The absorbance was measured at 450 nm using a POLARstar Omega microplate reader (BMG). S-Adenosylhomocysteine (AdoHcy) was used as a positive control. Methylation inhibition assays for EZH2, LSD, and G9a were performed in modified Tris, pH 9.0, buffer using AlphaLisa technology. An amount of 10 µL of the reaction system contained a corresponding concentration of SAM (Sigma) (EZH2 50 µM, LSD 50 µM, and G9a 50 µM), which was the Km value in each enzymatic reaction, plus 100 nM biotinylated peptide H3 (1–21) (synthesis by GLChina) and the relevant enzyme concentration (0.03 nM EZH2, 0.03 nM LSD, and 0.03 nM G9a). The proteins were preincubated with various compound concentrations for 15 min at room temperature before the substrate and SAM were added. After 60 min of incubation at room temperature, acceptor and donor AlphaLisa beads were added according to the manufacturer’s recommendations. The signals were read in Alpha mode with an EnSpire multimode plate reader (PerkinElmer). IC50 values were derived by fitting the data for the inhibition percentage to a dose-response curve by non-linear regression in GraphPad Prism 5.0[20].
as §1, §3, §4, §5, §6, §7
Cpd. […]

[7] = test system: G9a (histone H3 lysine 9 methyltransferase); experiment: Methylation inhibition assay (AlphaLisa), G9a; format: biochemical; conditions: 50 µM; for inhibitory activity against G9a: Figure 3; for Relative selectivity index of DNMT1 vs G9a: 1 - selected enzyme inhibition/DNMT1 inhibition
Experimental: as §10, §1, §3, §4, §5, §6, §7
Cpd. […]

[8] = test system: LSD1; experiment: Methylation inhibition assay (AlphaLisa), LSD1; format: biochemical; conditions: 1 - selected enzyme inhibition/DNMT1 inhibition; 50 µM
Experimental: as §10, §1, §3, §4, §5, §6, §7
Cpd. […]

[9] = test system: human DNMT1; experiment: ELISA EpiQuik DNA methyltransferase (DNMT) activity/inhibitor assay; format: biochemical; conditions: 200 nM purified DNMT1, EpiQuik kit; for Inh% at 50 μM: 50 μM compound; for Inh% at 100 μM: 100 μM compound
Experimental: as §10
DNMT1 inhibition test was performed on 30 candidates to verify their biochemical activities. The EpiQuik DNA methyl-transferase (DNMT) activity/inhibitor assay kit (Epigentek) was used to identify the activity of synthetic compounds.

[10] = PK study in SD rats; format: in vivo; conditions: rat, plasma, SD male rats; for AUC(0-t) / Tmax / half-life: mean ± SD (n = 3); for bioavailability: p.o. 10 mg/kg vs i.v. 2 mg/kg, F = (AUC p.o. × Dose i.v.)/(AUC i.v. × Dose p.o.) × 100%
Experimental: In vivo pharmacokinetic properties of WK-22, WK-23, WK-27, and DC_517 were performed by Medicilon Company, Shanghai, China. SPF-grade SD male rats (8 groups, n = 3 rats per group) with a body weight of 230–260 g were purchased from Shanghai SIPPR-BK LAB Animal Ltd., Shanghai, China, and used for the pharmacokinetic analysis of the tested compounds. All animals were deprived of food overnight after the cannulation surgery. Subsequently, the tested compounds WK-23 and DC_517 were dissolved/suspended in 5% DMSO, 10% Solutol, and 85% water, and the tested compounds WK-22 and WK-27 were dissolved/suspended in 5% DMSO, 40% PEG400, and 55% saline for intravenous administration (i.v.) and oral administration (p.o.), respectively. A final dosage of 2.0 and 10.0 mg/kg rat of the formulated compounds was administered for i.v. and p.o. purposes, respectively, and the blood samples were taken at various time points during a 24 h period. At different time points, blood samples were collected from the femoral vein. The plasma samples were obtained after centrifugation (6800 g, 6 min, 2–8 °C) and stored at −80 °C until the assay. The AUC (area under concentration-time curve) was calculated through the trapezoidal rule with extrapolation to time infinity. The concentration of the compounds in the blood was analysed by LC-MS/MS (Shimadzu liquid chromatographic system and SCIEX Triple Quad 5500+ mass spectrometer, Applied Biosystems, Ontario, Canada). The Tmax, T1/2, and Cmax value was obtained through visual inspection of the plasma concentration-time curve. The Vss value was generated from DAS 3.2.8 software. The F value of WK-23 was calculated with the formula: F = (AUC p.o. × Dose i.v.)/(AUC i.v. × Dose p.o.) × 100%.

Chain of DNMT1 (P26358 whole entry): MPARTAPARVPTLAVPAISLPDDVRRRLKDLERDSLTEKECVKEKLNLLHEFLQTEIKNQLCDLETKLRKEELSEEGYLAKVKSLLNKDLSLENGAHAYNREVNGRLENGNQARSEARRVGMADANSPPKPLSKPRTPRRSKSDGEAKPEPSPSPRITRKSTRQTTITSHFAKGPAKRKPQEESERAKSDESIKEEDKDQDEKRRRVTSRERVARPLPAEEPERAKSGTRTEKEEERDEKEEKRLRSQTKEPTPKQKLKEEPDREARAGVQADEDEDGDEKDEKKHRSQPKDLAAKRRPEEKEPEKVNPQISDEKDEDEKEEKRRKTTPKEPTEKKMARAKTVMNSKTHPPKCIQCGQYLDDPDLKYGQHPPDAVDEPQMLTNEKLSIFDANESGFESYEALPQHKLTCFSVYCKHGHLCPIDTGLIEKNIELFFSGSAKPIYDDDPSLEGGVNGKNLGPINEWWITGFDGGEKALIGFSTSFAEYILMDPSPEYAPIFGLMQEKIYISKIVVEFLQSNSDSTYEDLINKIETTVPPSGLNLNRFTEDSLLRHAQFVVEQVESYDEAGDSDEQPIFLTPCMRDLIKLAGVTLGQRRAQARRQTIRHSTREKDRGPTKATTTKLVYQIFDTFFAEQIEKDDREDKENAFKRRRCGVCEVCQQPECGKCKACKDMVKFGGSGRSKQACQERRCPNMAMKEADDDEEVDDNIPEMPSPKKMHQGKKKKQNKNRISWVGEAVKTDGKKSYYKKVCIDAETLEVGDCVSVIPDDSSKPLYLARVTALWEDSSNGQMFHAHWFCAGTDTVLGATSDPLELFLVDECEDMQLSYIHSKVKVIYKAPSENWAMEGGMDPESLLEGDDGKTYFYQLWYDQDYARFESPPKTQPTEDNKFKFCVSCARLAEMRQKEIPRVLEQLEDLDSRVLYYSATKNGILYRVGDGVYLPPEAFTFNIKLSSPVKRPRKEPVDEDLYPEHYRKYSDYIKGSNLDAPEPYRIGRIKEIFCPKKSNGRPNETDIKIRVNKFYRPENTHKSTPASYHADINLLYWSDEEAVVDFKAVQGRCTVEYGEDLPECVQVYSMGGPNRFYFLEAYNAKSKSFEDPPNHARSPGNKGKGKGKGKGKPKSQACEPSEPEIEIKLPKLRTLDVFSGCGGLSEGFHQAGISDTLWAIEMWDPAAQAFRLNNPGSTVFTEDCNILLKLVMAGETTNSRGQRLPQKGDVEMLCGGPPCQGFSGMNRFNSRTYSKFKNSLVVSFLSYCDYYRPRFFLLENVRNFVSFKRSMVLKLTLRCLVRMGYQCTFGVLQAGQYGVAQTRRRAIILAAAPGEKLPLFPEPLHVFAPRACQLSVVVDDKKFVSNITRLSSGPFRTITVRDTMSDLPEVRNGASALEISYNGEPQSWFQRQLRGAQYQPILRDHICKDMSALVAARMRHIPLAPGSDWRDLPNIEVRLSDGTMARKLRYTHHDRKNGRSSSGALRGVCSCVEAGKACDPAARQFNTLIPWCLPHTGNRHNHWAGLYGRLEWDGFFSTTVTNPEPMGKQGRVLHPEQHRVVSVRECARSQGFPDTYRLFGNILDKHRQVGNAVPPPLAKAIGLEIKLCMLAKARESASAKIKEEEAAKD

Relative selectivity index of DNMT1 vs DNMT 3B/3L [1] | Relative selectivity index of DNMT1 vs DNMT 3A/3L [4] | IC50 [5] [µM] | inhibitory activity against G9a [7] | Relative selectivity index of DNMT1 vs G9a [7] | Inh% at 50 μM [9] [%] | Inh% at 100 μM [9] [%] | melting point [°C] | Structure (SMILES) | inhibitory activity against EZH2 [6] | Relative selectivity index of DNMT1 vs EZH2 [6] | Relative selectivity index of DNMT1 vs LSD1 [8] | other results
1.15 | 0.49 | 28 | hardly any inhibitory activities | 0.84 | 82 | 100 | 137 to 139 | OC(CNCCc1c[nH]c2ccccc12)Cn1c2ccccc2c2cc(F)ccc21 (centres unmarked) [WK-1, 1-((2-(1H-indol-3-yl)ethyl)amino)-3-(3-fluoro-9H-carbazol-9-yl)propan-2-ol] | hardly any inhibitory activities | 0.93 | 0.18 | inhibitory activity against DNMT3B/3L ([1]; Figure 3): hardly any inhibitory activities; inhibition at 50 µM ([2]; HCT-116, 24 h, read-out: Inh % at 50 μM, HCT116, 24 h): 90.9%; inhibition at 50 µM ([2]; HCT-116, 48 h, read-out: Inh % at 50 μM, HCT116, 48 h): 88%; inhibition at 50 µM ([2]; HCT-116, 72 h, read-out: Inh % at 50 μM, HCT116, 72 h): 94.9%; inhibition at 50 µM ([3]; 24 h, read-out: Inh % at 50 μM, A549, 24 h): 88.2%; inhibition at 50 µM ([3]; 48 h, read-out: Inh % at 50 μM, A549, 48 h): 78.6%; inhibition at 50 µM ([3]; 72 h, read-out: Inh % at 50 μM, A549, 72 h): 87.6%
– | – | 6 | – | – | 79 | 84 | 114 to 116 | OC(CNCCc1ccc(F)cc1)Cn1c2ccc(F)cc2c2cc(F)ccc21 (centres unmarked) [WK-14, 1-(3,6-Difluoro-9H-carbazol-9-yl)-3-((4-fluorophenethyl)amino)propan-2-ol] | – | – | – | –
– | – | 7.7 | – | – | 75 | 82 | 91 to 93 | OC(CNCCc1ccccc1)Cn1c2ccc(F)cc2c2cc(F)ccc21 (centres unmarked) [WK-15, 1-(3,6-Difluoro-9H-carbazol-9-yl)-3-(phenethylamino)propan-2-ol] | – | – | – | –
– | – | 10 | – | – | 70 | 87 | 130 to 132 | CC(O)CNCC(O)Cn1c2ccc(F)cc2c2cc(F)ccc21 (centres unmarked) [WK-18, 1-(3,6-Difluoro-9H-carbazol-9-yl)-3-((2-hydroxypropyl)amino)propan-2-ol] | – | – | – | –
1.44 | 0.94 | – | – | 0.99 | 100 | 100 | 183 to 185 | CC(C)(C)NCC(O)COC(Cn1c2ccccc2c2cc(F)ccc21)Cn1c2ccccc2c2cc(F)ccc21 (centres unmarked) [WK-25, 1-((1,3-Bis(3-fluoro-9H-carbazol-9-yl)propan-2-yl)oxy)-3-(tert-butylamino)propan-2-ol] | – | 0.89 | 0.02 | –
0.03 | 0.03 | – | nearly no inhibitory activities | 0.97 | 100 | 100 | 150 to 152 | OC[C@H]1CN(CC(O)COC(Cn2c3ccccc3c3cc(F)ccc32)Cn2c3ccc(F)cc3c3cc(F)ccc32)CCN1 (stereo partly drawn) [WK-27, 1-((1-(3,6-Difluoro-9H-carbazol-9-yl)-3-(3-fluoro-9H-carbazol-9-yl)propan-2-yl)oxy)-3-((R)-3-(hydroxymethyl)piperazin-1-yl)propan-2-ol] | nearly no inhibitory activities | 0.9 | 0.05 | AUC(0-t) ([10]; iv, i.v. (2 mg/kg)): 427 ± 60 ng·h/mL; Tmax ([10]; iv, i.v. (2 mg/kg)): 0.1 h; half-life ([10]; iv, i.v. (2 mg/kg)): 11.5 ± 1.2 h; bioavailability ([10]; oral): 1.8%; bioavailability ([10]; po): 1.8 ± 1.9%; AUC(0-t) ([10]; po, p.o. (10 mg/kg)): 28.5 ± 40 ng·h/mL; Tmax ([10]; po, p.o. (10 mg/kg)): 2.7 ± 1.2 h; half-life ([10]; po, p.o. (10 mg/kg)): 3.9 ± 2.5 h
